Data from ChEMBL document CHEMBL4765354, “Structure guided design of potent indole-based ATX inhibitors bearing hydrazone moiety with tumor suppression effects” (Eur J Med Chem, 2020).
pIC50: −log10 of the molar value.

Assays:
[1] = test system: MDA-MB-231; assay: Antiproliferative activity against human MDA-MB-231 cells measured after 72 hrs by MTT assay; assay type: functional, cell-based; details: MDA-MB-231, 72 h
[2] = test system: NCI-H2228; assay: Antiproliferative activity against human NCI-H2228 cells measured after 72 hrs by MTT assay; assay type: functional, cell-based; details: NCI-H2228, 72 h
[3] = test system: A549; assay: Antiproliferative activity against human A549 cells measured after 72 hrs by MTT assay; assay type: functional, cell-based; details: A549, 72 h
[4] = test system: MCF7; assay: Antiproliferative activity against human MCF7 cells measured after 72 hrs by MTT assay; assay type: functional, cell-based; details: MCF7, 72 h
[5] = molecular target: Autotaxin (Homo sapiens, UniProt Q13822); assay: Inhibition of human C-terminal His6-tagged ATX beta expressed in Sf9 insect cells using FS-3 as substrate preincubated for 45 mins followed by substrate addition and measured at 1 min interval for 30 mins by fluorescence assay

Row | Compound | pIC50 [1] | pIC50 [2] | pIC50 [3] | pIC50 [4] | pIC50 [5]
1 | O=C(CCN1CCN(C(=O)OCc2cc(Cl)cc(Cl)c2)CC1)c1ccc2[nH]c(=O)oc2c1 | 5.38 | 4.95 | 5.09 | 5.64 | 
2 | CCn1cc(/C(=N/Nc2nc(-c3ccc(OC)cc3)c(C#N)s2)C(F)(F)F)c2cc(-c3nc(CN4CCOCC4)cs3)ccc21 | 5.29 |  | < 4.82 |  | 5.69
3 | CCn1cc(/C(=N/Nc2nc(-c3ccc(F)cc3)c(C#N)s2)C(F)(F)F)c2cc(-c3nc(CN4CCC(O)CC4)cs3)ccc21 |  |  | 4.99 | 5.29 | 5.69
4 | CCN1CCN(Cc2csc(-c3ccc4c(c3)c(/C(=N/Nc3nc(-c5ccc(Cl)cc5)c(C#N)s3)C(F)(F)F)cn4CC)n2)CC1 | 5.49 | < 4.82 | 4.86 | 5.24 | 5.67
5 | CCn1cc(/C(=N/Nc2nc(-c3ccc(OC)cc3)c(C#N)s2)C(F)(F)F)c2cc(-c3nc(CN4CCC(C)CC4)cs3)ccc21 |  |  | 5.01 | 5.65 | < 5.00
6 | CCn1cc(/C(=N/Nc2nc(-c3ccc(F)cc3)c(C#N)s2)C(F)(F)F)c2cc(-c3nc(CN4CCC[C@H]4CO)cs3)ccc21 |  |  |  |  | 5.28
7 | CCn1cc(/C(=N/Nc2nc(-c3ccc(Cl)cc3)c(C#N)s2)C(F)(F)F)c2cc(-c3nc(CN4CCCC4)cs3)ccc21 | 5.81 |  | < 4.82 | 5.30 | 5.61
8 | CCn1cc(/C(=N/Nc2nc(-c3ccc(OC)cc3)c(C#N)s2)C(F)(F)F)c2cc(-c3nc(CN4CCN(C)CC4)cs3)ccc21 | 5.09 | 5.59 | 5.31 | 5.55 | 5.73
9 | CCn1cc(/C(=N/Nc2nc(-c3ccc(F)cc3)c(C#N)s2)C(F)(F)F)c2cc(-c3nc(CN4CCOCC4)cs3)ccc21 | 5.30 | < 4.82 | < 4.82 | 5.64 | 5.63
10 | CCn1cc(/C(=N/Nc2nc(-c3ccc(F)cc3)c(C#N)s2)C(F)(F)F)c2cc(-c3nc(CN4CCN(C)CC4)cs3)ccc21 |  |  | 4.93 | 5.68 | 5.52
11 | CCn1cc(/C(=N/Nc2nc(-c3ccc(F)cc3)c(C#N)s2)C(F)(F)F)c2cc(-c3nc(CN4CCCCC4)cs3)ccc21 | 5.26 | 5.24 | < 4.82 | 5.80 | 5.46
12 | Cn1cc(/C(=N/Nc2nc(-c3ccc(Cl)cc3)c(C#N)s2)C(F)(F)F)c2cc(-c3nc(CN4CCOCC4)cs3)ccc21 | 5.57 | < 4.82 | 5.03 | 5.49 | 5.53
13 | CCn1cc(/C(=N/Nc2nc(-c3ccc(OC)cc3)c(C#N)s2)C(F)(F)F)c2cc(-c3nc(CN4CCCC4)cs3)ccc21 | 5.29 | < 4.82 | 4.86 |  | 5.52
14 | Cn1cc(/C(=N/Nc2nc(-c3ccc(F)cc3)c(C#N)s2)C(F)(F)F)c2cc(-c3nc(CN4CCC(O)CC4)cs3)ccc21 | 5.35 | 5.02 | 5.04 | 5.32 | 5.76
15 | CCn1cc(/C(=N/Nc2nc(-c3ccc(Cl)cc3)c(C#N)s2)C(F)(F)F)c2cc(-c3nc(CN4CCCCC4)cs3)ccc21 |  |  |  |  | 5.22
16 | CCn1cc(/C(=N/Nc2nc(-c3ccc(Cl)cc3)c(C#N)s2)C(F)(F)F)c2cc(-c3nc(CN4CC(O)C4)cs3)ccc21 | 5.47 | < 4.82 |  | < 4.82 | 5.61
17 | CCn1cc(/C(=N/Nc2nc(-c3ccc(Cl)cc3)c(C#N)s2)C(F)(F)F)c2cc(-c3nc(CN4CCC(C)CC4)cs3)ccc21 |  |  |  |  | 5.38
18 | CCc1nc2c(C)cc(N3CCN(CC(=O)N4CC(O)C4)CC3)cn2c1N(C)c1nc(-c2ccc(F)cc2)c(C#N)s1 [ZIRITAXESTAT] | 5.20 | < 4.82 | < 4.82 | 5.08 | 

More lines, in order of rising pIC50 [5], values ahead:

Row | pIC50 [1] | pIC50 [2] | pIC50 [3] | pIC50 [4] | pIC50 [5] | Compound
19 | 5.57 |  | < 4.82 | 5.36 | 5.81 | CCN1CCN(Cc2csc(-c3ccc4c(c3)c(/C(=N/Nc3nc(-c5ccc(F)cc5)c(C#N)s3)C(F)(F)F)cn4CC)n2)CC1
20 | 5.63 |  | < 4.82 |  | 5.84 | CCn1cc(/C(=N/Nc2nc(-c3ccc(Cl)cc3)c(C#N)s2)C(F)(F)F)c2cc(-c3nc(CN4CCC(O)CC4)cs3)ccc21
21 | 5.92 | < 4.82 |  |  | 5.85 | CCn1cc(/C(=N/Nc2nc(-c3ccc(Cl)cc3)c(C#N)s2)C(F)(F)F)c2cc(-c3nc(CN4CCC[C@H]4CO)cs3)ccc21
22 | 5.63 | 5.20 | < 4.82 | 5.55 | 5.88 | CCn1cc(/C(=N/Nc2nc(-c3ccc(F)cc3)c(C#N)s2)C(F)(F)F)c2cc(-c3nc(CN4CCCC4)cs3)ccc21
23 |  |  | 5.16 | 5.75 | 5.90 | CCn1cc(/C(=N/Nc2nc(-c3ccc(F)cc3)c(C#N)s2)C(F)(F)F)c2cc(-c3nc(CN4CC(O)C4)cs3)ccc21
24 | 5.81 | < 4.82 |  |  | 5.92 | CCn1cc(/C(=N/Nc2nc(-c3ccc(Cl)cc3)c(C#N)s2)C(F)(F)F)c2cc(-c3nc(CN4CCN(C)CC4)cs3)ccc21
25 | 5.91 |  | < 4.82 | 5.82 | 6.01 | CCn1cc(/C(=N/Nc2nc(-c3ccc(OC)cc3)c(C#N)s2)C(F)(F)F)c2cc(-c3nc(CN4CCC[C@H]4C(=O)O)cs3)ccc21
26 |  |  | < 4.82 | 5.33 | 6.03 | CCN1CCN(Cc2csc(-c3ccc4c(c3)c(/C(=N/Nc3nc(-c5ccc(OC)cc5)c(C#N)s3)C(F)(F)F)cn4CC)n2)CC1
27 | 5.61 | < 4.82 | < 4.82 | < 4.82 | 6.04 | CCn1cc(/C(=N/Nc2nc(-c3ccc(OC)cc3)c(C#N)s2)C(F)(F)F)c2cc(-c3nc(CN4CC(O)C4)cs3)ccc21
28 |  |  | 4.96 | 5.37 | 6.06 | CCn1cc(/C(=N/Nc2nc(-c3ccc(OC)cc3)c(C#N)s2)C(F)(F)F)c2cc(-c3nc(CN4CCC[C@H]4CO)cs3)ccc21
29 |  | < 4.82 | 5.14 | 5.49 | 6.11 | CCn1cc(/C(=N/Nc2nc(-c3ccc(F)cc3)c(C#N)s2)C(F)(F)F)c2cc(-c3nc(CN4CCN(CCO)CC4)cs3)ccc21
30 | 5.90 | < 4.82 | < 4.82 | 6.19 | 6.21 | CCn1cc(/C(=N/Nc2nc(-c3ccc(F)cc3)c(C#N)s2)C(F)(F)F)c2cc(-c3nc(CN4CCC[C@H]4C(=O)O)cs3)ccc21
31 | 5.40 | < 4.82 |  | 5.86 | 6.25 | CCn1cc(/C(=N/Nc2nc(-c3ccc(OC)cc3)c(C#N)s2)C(F)(F)F)c2cc(-c3nc(CN4CCC(O)CC4)cs3)ccc21
32 | 5.68 | < 4.82 |  |  | 6.47 | CCn1cc(/C(=N/Nc2nc3ccccc3s2)C(F)(F)F)c2cc(-c3nc(CN4CCC(C)CC4)cs3)ccc21
33 | 5.14 |  | 5.03 | 5.56 | 6.70 | CCn1cc(/C(=N/Nc2nc3ccccc3s2)C(F)(F)F)c2cc(-c3nc(CN4CCOCC4)cs3)ccc21
34 | 5.91 | 4.94 | < 4.82 | 5.54 | 6.78 | COc1ccc(-c2nc(N/N=C(/c3c(C)[nH]c4cc(F)c(N5CCN(CCN(C)C)CC5)cc34)C(F)(F)F)sc2C#N)cc1
35 | 5.94 |  | < 4.82 |  | 6.80 | CCN1CCN(C(=O)C2CCN(c3cc4c(/C=N/Nc5nc(-c6ccc(F)cc6)c(C#N)s5)c(C)[nH]c4cc3F)CC2)CC1
36 |  | 5.20 | 5.10 | 5.75 | 6.90 | CCn1cc(/C(=N/Nc2nc3ccccc3s2)C(F)(F)F)c2cc(-c3nc(CN4CCCC4)cs3)ccc21
37 | 5.84 | 5.07 | 5.13 | 5.56 | 6.94 | CCn1cc(/C(=N/Nc2nc3ccccc3s2)C(F)(F)F)c2cc(-c3nc(CN4CCN(C)CC4)cs3)ccc21
38 |  | 5.10 | < 4.82 | 5.51 | 6.97 | CCn1cc(/C(=N/Nc2nc3ccccc3s2)C(F)(F)F)c2cc(-c3nc(CN4CCCCC4)cs3)ccc21
39 | 5.44 | < 4.82 |  | 5.78 | 6.98 | Cc1[nH]c2cc(F)c(N3CCC(C(=O)N4CCOCC4)CC3)cc2c1/C=N/Nc1nc(-c2ccc(F)cc2)c(C#N)s1
40 | 5.46 |  | < 4.82 | 5.72 | 7.14 | CCn1cc(/C(=N/Nc2nc3ccccc3s2)C(F)(F)F)c2cc(-c3nc(CN4CCC[C@H]4C(=O)O)cs3)ccc21
41 |  | < 4.82 | 5.04 | 6.12 | 7.24 | Cc1[nH]c2cc(F)c(N3CCC(C(=O)N4CCCC4)CC3)cc2c1/C(=N/Nc1nc(-c2ccc(F)cc2)c(C#N)s1)C(F)(F)F
42 | 6.10 | < 4.82 | 4.87 | 6.00 | 7.72 | Cc1[nH]c2cc(F)c(N3CCN(CCN(C)C)CC3)cc2c1/C(=N/Nc1nc(-c2ccc(F)cc2)c(C#N)s1)C(F)(F)F
43 | 6.51 | 5.14 | 4.96 | 6.37 | 8.68 | CCn1cc(/C(=N/Nc2nc3ccccc3s2)C(F)(F)F)c2cc(-c3nc(CN4CCC(O)CC4)cs3)ccc21
